IC50 data for 36 molecules are collected here from patent US20240343727A1, “PYRIDAZINONE OR PYRIDINONE COMPOUNDS, PREPARATION METHODS AND USES THEREOF” (InventisBio Co., Ltd., priority 2021, published 2024).

Bounds are passed on as bounds.

The target of this assay is T1, PARP7 (Homo sapiens, UniProt Q7Z3E1).
T1 sequence (Q7Z3E1 1-657): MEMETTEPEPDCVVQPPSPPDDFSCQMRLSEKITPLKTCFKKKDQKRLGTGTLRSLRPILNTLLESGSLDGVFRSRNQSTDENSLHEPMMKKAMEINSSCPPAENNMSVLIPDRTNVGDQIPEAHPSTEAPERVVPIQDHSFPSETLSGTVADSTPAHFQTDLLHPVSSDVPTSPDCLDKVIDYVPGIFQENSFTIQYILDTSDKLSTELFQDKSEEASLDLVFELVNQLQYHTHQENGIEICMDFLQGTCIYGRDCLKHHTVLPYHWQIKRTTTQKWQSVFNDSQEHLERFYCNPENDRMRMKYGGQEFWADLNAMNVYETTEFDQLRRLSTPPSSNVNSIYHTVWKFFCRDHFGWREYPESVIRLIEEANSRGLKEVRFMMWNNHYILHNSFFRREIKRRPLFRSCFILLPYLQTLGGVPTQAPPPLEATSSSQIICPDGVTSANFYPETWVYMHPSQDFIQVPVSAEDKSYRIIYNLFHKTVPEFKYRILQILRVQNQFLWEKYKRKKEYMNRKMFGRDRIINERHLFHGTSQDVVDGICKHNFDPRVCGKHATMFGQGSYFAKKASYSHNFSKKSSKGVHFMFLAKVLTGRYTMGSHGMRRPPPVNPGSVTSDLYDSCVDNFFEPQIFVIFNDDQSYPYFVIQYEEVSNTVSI
The assay is described as follows: PARP7 TR-FRET assay (binding, displacement of biotinylated Probe A). The settings on record: 6 nM PARP7, 2 nM Probe A, 25° C., 30 min. The procedure:
Biological Assay Example A: PARP7 TR-FRET Assay
A time-resolved fluorescence energy transfer (TR-FRET) assay was used to test binding activity of compounds to PARP7. Two microliter test compound was added in 384-well plate. Reactions were performed in a 6 uL volume by adding 4 uL mixture of PARP7 and Probe A (a biotinylated probe binding to the PARP7: N-(6-(2-(4-((2-(6-oxo-5-(trifluoromethyl)-1,6-dihydropyridazin-4-yl) isoindolin-5-yl) oxy) piperidin-1-yl) acetamido) hexyl)-5-((3aS,4S,6aR)-2-oxohexahydro-1H-thieno [3,4-d]imidazol-4-yl) pentanamide, made as reported in WO2019212937A1) in assay buffer (20 mM HEPES pH 8.0, 100 mM NaCl, 0.1% BSA, 2 mM DTT and 0.002% Tween20). The final concentration of PARP7 and Probe A were 6 nM and 2 nM, incubating with test compounds at 25° C. for 30 min. Four microliter ULight-anti 6xHis and LANCE Eu-W1024 labeled streptavidin (PerkinElmer) were added with the final concentration of ULight-anti 6xHis and LANCE Eu-W1024 at 4 nM and 0.25 nM. The reaction mixture was incubated at 25° C. for 30 min. The plate was read on a Tecan Spark plate reader (excitation wavelength at 320 nm, emission wavelength at 615 nm and 665 nm with a 90 us delay. The ratio of the 665/615 nm emission was calculated for each well to the amount of complex of PARP7 and Probe A in each well was calculated. The 0.25% DMSO vehicle was used as control and no PARP7 well was as blank well. Inhibition rate is calculated with the formula of % inhibition=100-100*(TRFcmpd-TRFblank)/(TRFcontrol−TRFblank). Inhibition IC50 is calculated with the equation of Y=Bottom+ (Top-Bottom)/(1+10^((LogIC50−X) *Hill Slope))
In turn, `O=C(CC1CN(c2n[nH]c(=O)c3ccc(C4CC4)cc23)CCO1)N1CCN(c2ncc(C(F)(F)F)cn2)CC1` (single isomer, unassigned) [Compound 105] returned an IC50 of 0.1 to 1 µM.
In the case of `O=C(c1cc(Oc2n[nH]c(=O)c(C(F)(F)F)c2N2CC3(C2)CC(F)(F)C3)ccn1)N1CCN(c2ccc(C(F)(F)F)cn2)CC1` [Compound 148] it was less than 0.1 µM.
In the case of `O=C(c1cccc(Oc2n[nH]c(=O)c(C(F)(F)F)c2N2CC3(CC3)C2)c1)N1CCN(c2ncc(C(F)(F)F)cn2)CC1` [Compound 59] it was less than 0.1 µM.
Then `Cc1c(Oc2cncc(C(=O)N3CCN(c4ncc(C(F)(F)F)cn4)CC3)c2)n[nH]c(=O)c1C(F)(F)F` [Compound 20], with less than 0.1 µM; and `N#CC1(c2ccnc(N3CCN(C(=O)CC4CN(c5cc(C(F)(F)F)c(=O)[nH]n5)c5cc(Cl)ccc5O4)CC3)n2)CC1` (single isomer, unassigned) [Compound 345], with more than 1 µM; and `CS(=O)(=O)Cc1ccc2c(c1)N(c1cc(C(F)(F)F)c(=O)[nH]n1)CC(CC(=O)N1CCN(c3ncc(C(F)(F)F)cn3)CC1)O2` (single isomer, unassigned) [Compound 271], with less than 0.1 µM.
Molecule `Cc1cc(Oc2n[nH]c(=O)c(C(F)(F)F)c2C)cc(C(=O)N2CCN(c3ncc(C(F)(F)F)cn3)CC2)c1` [Compound 23] showed an IC50 of less than 0.1 µM.
Then `N#Cc1ccc2c(c1)N(c1cc(C(F)(F)F)c(=O)[nH]n1)CC(CC(=O)N1CCN(c3ccc(C(F)(F)F)cn3)CC1)O2` (single isomer, unassigned) [Compound 154], with less than 0.1 µM; and `O=C(CC1CN(c2n[nH]c(=O)c3c(Cl)cccc23)CCO1)N1CCN(c2ncc(C(F)(F)F)cn2)CC1` (single isomer, unassigned) [Compound 98], with less than 0.1 µM.
In the case of `CNC1CN(c2c(Oc3cccc(C(=O)N4CCN(c5ncc(C(F)(F)F)cn5)CC4)c3)n[nH]c(=O)c2C(F)(F)F)C1` [Compound 61] it was less than 0.1 µM; in that of `CC1(C#N)CN(c2c(Oc3cccc(C(=O)N4CCN(c5ncc(C(F)(F)F)cn5)CC4)c3)n[nH]c(=O)c2C(F)(F)F)C1` [Compound 213], less than 0.1 µM.
Then `C[C@@H]1CN(C(=O)c2cccc(Oc3n[nH]c(=O)c(C(F)(F)F)c3N3CC(C#N)C3)c2)CCN1c1ncc(C(F)(F)F)cn1` [Compound 350], with less than 0.1 µM; and `O=C(c1cncc(Oc2n[nH]c(=O)c(C(F)(F)F)c2N2CC3(CCCO3)C2)c1)N1CCN(c2ncc(C(F)(F)F)cn2)CC1` [Compound 233], with less than 0.1 µM.
`O=C(c1cccc(Oc2n[nH]c(=O)cc2C(F)(F)F)c1)N1CCN(c2ncc(C(F)(F)F)cn2)CC1` [Compound 18] gave an IC50 of more than 1 µM.
On to `O=C(CC1CN(c2n[nH]c(=O)c3ccc(OCC(F)F)cc23)CCO1)N1CCN(c2ncc(C(F)(F)F)cn2)CC1` (single isomer, unassigned) [Compound 211], for which the IC50 was less than 0.1 µM.
In the case of `C#Cc1cnc(N2CCN(C(=O)c3cccc(Oc4n[nH]c(=O)c(C(F)(F)F)c4N4CC5(CCCO5)C4)c3)CC2)nc1` [Compound 275] it was less than 0.1 µM; in that of `O=C(CC1CN(c2cc(C(F)(F)F)c(=O)[nH]n2)c2ccccc2O1)N1CCN(c2ccc(C(F)(F)F)cn2)CC1` (single isomer, unassigned) [Compound 246], less than 0.1 µM.
In turn, `O=C(CC1CN(c2cc(C(F)(F)F)c(=O)[nH]n2)c2cc(Cl)ccc2O1)N1CCN(c2ncc(C(F)(F)F)cn2)CC1` (single isomer, unassigned) [Compound 132] gave an IC50 of less than 0.1 µM.
As to `O=C(CC1CN(c2cc(C(F)(F)F)c(=O)[nH]n2)c2cc(Cl)ccc2O1)N1CCN(c2ncc(C(F)(F)F)cn2)CC1` (single isomer, unassigned) [Compound 133], the IC50 was less than 0.1 µM.
Then `O=C(c1cccc(Oc2n[nH]c(=O)c(C(F)(F)F)c2N2CC3(CC(F)C3)C2)c1)N1CCN(c2ncc(C(F)(F)F)cn2)CC1` [Compound 176], with less than 0.1 µM; and `O=C(CC1CN(c2cc(C(F)(F)F)c(=O)[nH]n2)c2ccccc2O1)N1CCN(c2ccc(C(F)(F)F)cn2)CC1` (single isomer, unassigned) [Compound 247], with 0.1 to 1 µM; and `C[C@H]1CN(c2n[nH]c(=O)c3cccc(F)c23)C[C@@H](CC(=O)N2CCN(c3ncc(C(F)(F)F)cn3)CC2)O1` (stereo in doubt) [Compound 120], with 0.1 to 1 µM.
Then `O=C(CC1CN(c2cc(C(F)(F)F)c(=O)[nH]n2)c2ccccc2O1)N1CCN(c2cnc(C(F)(F)F)cn2)CC1` (single isomer, unassigned) [Compound 262], with less than 0.1 µM.
In the case of `CC(C)(O)c1cnc(N2CCN(C(=O)CC3CN(c4cc(C(F)(F)F)c(=O)[nH]n4)c4cc(F)ccc4O3)CC2)nc1` (single isomer, unassigned) [Compound 351] it was less than 0.1 µM; in that of `Cc1ccc(C(=O)N2CCN(c3ncc(C(F)(F)F)cn3)CC2)cc1Oc1n[nH]c(=O)c(C(F)(F)F)c1C` [Compound 19], less than 0.1 µM; in that of `Cn1cc(-c2ccc3c(c2)N(c2cc(C(F)(F)F)c(=O)[nH]n2)CC(CC(=O)N2CCN(c4ncc(C(F)(F)F)cn4)CC2)O3)cn1` (single isomer, unassigned) [Compound 192], less than 0.1 µM.
Molecule `O=C(CC1CN(c2n[nH]c(=O)c3ccc(F)cc23)CCO1)N1CCN(c2ncc(C(F)(F)F)cn2)CC1` (single isomer, unassigned) [Compound 52] displayed an IC50 of less than 0.1 µM.
On to `C[C@@H]1CN(C(=O)CC2CN(c3cc(C(F)(F)F)c(=O)[nH]n3)c3cc(C#N)ccc3O2)CCN1c1cnc(C(F)(F)F)cn1` (single isomer, unassigned) [Compound 153], for which the 50% inhibitory concentration (IC50) was less than 0.1 µM.
Then `O=C(CCO[C@@H]1CCNc2c1n[nH]c(=O)c2C(F)(F)F)N1CCN(c2ncc(C(F)(F)F)cn2)CC1` (single isomer, unassigned) [Compound 6], with less than 0.1 µM; and `C[C@@H]1CN(C(=O)CC2CN(c3cc(C(F)(F)F)c(=O)[nH]n3)c3cc(C#N)ccc3O2)CCN1c1ncc(Cl)cn1` (single isomer, unassigned) [Compound 141], with less than 0.1 µM.
Molecule `N#Cc1ccc(N2CCN(C(=O)CC3CN(c4cc(C(F)(F)F)c(=O)[nH]n4)c4cc(C#N)ccc4O3)CC2)nc1` (single isomer, unassigned) [Compound 215] showed an IC50 of less than 0.1 µM.
Then `C#Cc1cnc(N2CCN(C(=O)c3cc(Oc4n[nH]c(=O)c(C(F)(F)F)c4N4CC5(C4)CC(F)(F)C5)ccn3)CC2)nc1` [Compound 317], with less than 0.1 µM; and `N#CC1(c2ccnc(N3CCN(C(=O)CC4CN(c5cc(C(F)(F)F)c(=O)[nH]n5)c5cc(F)ccc5O4)CC3)n2)CC1` (single isomer, unassigned) [Compound 343], with less than 0.1 µM.
The molecule `CN(C)C1CN(c2c(Oc3cccc(C(=O)N4CCN(c5ncc(C(F)(F)F)cn5)CC4)c3)n[nH]c(=O)c2C(F)(F)F)C1` [Compound 82] returned an IC50 of less than 0.1 µM.
Then `Cc1ccc2c(=O)[nH]nc(N3CCOC(CC(=O)N4CCN(c5ncc(C(F)(F)F)cn5)CC4)C3)c2c1` (single isomer, unassigned) [Compound 102], with less than 0.1 µM.
Then `O=C(CC1CN(c2cc(C(F)(F)F)c(=O)[nH]n2)c2ccccc2O1)N1CCN(c2cnc(C(F)(F)F)cn2)CC1` (single isomer, unassigned) [Compound 263], with 0.1 to 1 µM.

By IC50 is commonly meant the concentration that gives 50% inhibition.
